In patent publication US11834453B2, “Substituted pyrimido[5,4-d]pyrimidines as HER2 inhibitors” (Array BioPharma Inc., priority 2020, dated 2023):

What was measured:
[1] = molecular target: EGFR wild type (EGFR WT) (Homo sapiens (Human), UniProt P00533); assay: Cellular phosphorylation assay, EGF-stimulated EGFR phosphorylation in engineered NIH 3T3 cells, Phospho-EGFR DuoSet IC ELISA, Assay 5; format: cell-based
Summary of the method: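 Phospho-EGFR ELISA on lysates of engineered NIH 3T3 EGFR WT cells, IC50 derived from concentration curves. Cells plated at 20,000/well overnight, given compound dilutions 1 h at 37 °C, then rEGF 100 ng/ml for a further 10 min before lysis.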

[2] = molecular target: EGFR (Homo sapiens (Human), UniProt P00533); assay: ErbB enzyme assay (CisBio HTRF KinEASE-TK), Assay 3; format: biochemical
Summary of the method: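 First, enzyme was reacted with compound, 1 mM ATP and 250 nM biotinylated tyrosine-kinase peptide for 30 min at 22 °C at pH 7.4. Next, streptavidin-XL665 and cryptate antibody were added for 1 h. Finally, HTRF ratios were converted to POC and fitted to yield IC50.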

[3] = molecular target: ErbB2 WT (Homo sapiens (Human), UniProt P04626); assay: ErbB enzyme assay (CisBio HTRF KinEASE-TK), Assay 2; format: biochemical
Summary of the method: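 Readout is HTRF KinEASE-TK, using Sa-XL665 and cryptate antibody for 1 h at 22 °C, as percent of control between DMSO-only (100) and pre-quenched (0) reactions. The kinase reaction runs 30 min at 22 °C with 1 mM ATP and 250 nM biotinylated TK substrate, in HEPES pH 7.4 with MgCl2 and 2% DMSO.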

[4] = molecular target: MDR1 (P-gp) (Homo sapiens (Human), UniProt P08183); assay: MDR1 transfected MDCKII canine Mdr1 knockout permeability/efflux, Assay 7; settings: for efflux ratio at 2 h, 1 μM: dog, MDCK-MDR1
[5] = molecular target: ErbB2 insYVMA (HER2-YVMA, SEQ ID NO: 2) (Homo sapiens, UniProt P04626, INS775YVMA/P1170A); assay: biochemical; settings: ErbB2 insYVMA enzyme assay; read-out: Assay 1 IC50
[6] = molecular target: BCRP (Homo sapiens (Human), UniProt Q9UNQ0); assay: BCRP transfected MDCKII canine Mdr1 knockout permeability/efflux, Assay 9; settings: for efflux ratio at 2 h, 1 μM: dog
[7] = molecular target: ErbB2 with Exon 20 YVMA insertion (HER2-YVMA) (Homo sapiens (Human), UniProt P04626, INS775YVMA); assay: Cellular phosphorylation assay, constitutive ErbB2 phosphorylation (Y1196) in engineered NIH 3T3 cells, Assay 4; format: cell-based
Summary of the method: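 In-cell Western in NIH 3T3 cells carrying ErbB2 exon 20 YVMA insertion, with no ligand stimulation. One hour compound exposure at 37 °C before fixation and anti-pY1196 plus GAPDH staining with dual-wavelength fluorescence. IC50 derived after GAPDH normalization.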

[8] = Assay 9 Pe Ratio, efflux ratio Papp(B-A)/Papp(A-B), BCRP transfected MDCKII canine Mdr1 knockout

Chain of ErbB2 with Exon 20 YVMA insertion (HER2-YVMA) (P04626 other isoform, or with tags, fused parts or gaps ins YVMA behind 775): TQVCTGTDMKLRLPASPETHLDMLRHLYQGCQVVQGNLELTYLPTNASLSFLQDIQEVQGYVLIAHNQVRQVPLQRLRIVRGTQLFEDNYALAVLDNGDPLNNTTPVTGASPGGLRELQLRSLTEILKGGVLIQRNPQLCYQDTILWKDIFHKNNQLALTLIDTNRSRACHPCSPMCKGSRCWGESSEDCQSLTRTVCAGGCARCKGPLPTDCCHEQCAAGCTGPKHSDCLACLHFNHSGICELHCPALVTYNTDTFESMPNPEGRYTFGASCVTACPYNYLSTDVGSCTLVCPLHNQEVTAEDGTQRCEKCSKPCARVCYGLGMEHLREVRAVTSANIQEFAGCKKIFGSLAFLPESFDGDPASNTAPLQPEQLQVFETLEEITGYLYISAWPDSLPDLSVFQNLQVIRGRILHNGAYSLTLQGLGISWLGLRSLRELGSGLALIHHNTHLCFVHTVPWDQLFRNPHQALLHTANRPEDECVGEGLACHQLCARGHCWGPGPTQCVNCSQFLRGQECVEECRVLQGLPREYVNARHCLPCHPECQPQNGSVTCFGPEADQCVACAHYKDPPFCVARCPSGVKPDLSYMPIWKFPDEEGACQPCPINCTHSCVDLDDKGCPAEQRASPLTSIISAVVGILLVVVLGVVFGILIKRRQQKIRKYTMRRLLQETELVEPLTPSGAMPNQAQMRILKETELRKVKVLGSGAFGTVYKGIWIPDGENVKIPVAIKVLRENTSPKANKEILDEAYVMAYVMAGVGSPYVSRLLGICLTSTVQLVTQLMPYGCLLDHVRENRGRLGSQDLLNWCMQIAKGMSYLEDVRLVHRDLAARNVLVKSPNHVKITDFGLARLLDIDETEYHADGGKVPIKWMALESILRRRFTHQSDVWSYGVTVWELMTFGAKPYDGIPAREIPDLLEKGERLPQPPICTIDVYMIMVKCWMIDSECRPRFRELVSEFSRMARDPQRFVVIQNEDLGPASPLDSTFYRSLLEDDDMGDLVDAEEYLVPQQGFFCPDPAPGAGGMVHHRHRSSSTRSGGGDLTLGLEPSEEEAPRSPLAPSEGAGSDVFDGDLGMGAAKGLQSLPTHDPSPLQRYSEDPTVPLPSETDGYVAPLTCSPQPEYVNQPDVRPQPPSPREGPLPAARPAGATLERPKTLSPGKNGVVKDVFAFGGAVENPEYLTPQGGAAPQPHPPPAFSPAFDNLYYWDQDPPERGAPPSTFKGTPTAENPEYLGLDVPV
Chain of ErbB2 WT (P04626 23-1255): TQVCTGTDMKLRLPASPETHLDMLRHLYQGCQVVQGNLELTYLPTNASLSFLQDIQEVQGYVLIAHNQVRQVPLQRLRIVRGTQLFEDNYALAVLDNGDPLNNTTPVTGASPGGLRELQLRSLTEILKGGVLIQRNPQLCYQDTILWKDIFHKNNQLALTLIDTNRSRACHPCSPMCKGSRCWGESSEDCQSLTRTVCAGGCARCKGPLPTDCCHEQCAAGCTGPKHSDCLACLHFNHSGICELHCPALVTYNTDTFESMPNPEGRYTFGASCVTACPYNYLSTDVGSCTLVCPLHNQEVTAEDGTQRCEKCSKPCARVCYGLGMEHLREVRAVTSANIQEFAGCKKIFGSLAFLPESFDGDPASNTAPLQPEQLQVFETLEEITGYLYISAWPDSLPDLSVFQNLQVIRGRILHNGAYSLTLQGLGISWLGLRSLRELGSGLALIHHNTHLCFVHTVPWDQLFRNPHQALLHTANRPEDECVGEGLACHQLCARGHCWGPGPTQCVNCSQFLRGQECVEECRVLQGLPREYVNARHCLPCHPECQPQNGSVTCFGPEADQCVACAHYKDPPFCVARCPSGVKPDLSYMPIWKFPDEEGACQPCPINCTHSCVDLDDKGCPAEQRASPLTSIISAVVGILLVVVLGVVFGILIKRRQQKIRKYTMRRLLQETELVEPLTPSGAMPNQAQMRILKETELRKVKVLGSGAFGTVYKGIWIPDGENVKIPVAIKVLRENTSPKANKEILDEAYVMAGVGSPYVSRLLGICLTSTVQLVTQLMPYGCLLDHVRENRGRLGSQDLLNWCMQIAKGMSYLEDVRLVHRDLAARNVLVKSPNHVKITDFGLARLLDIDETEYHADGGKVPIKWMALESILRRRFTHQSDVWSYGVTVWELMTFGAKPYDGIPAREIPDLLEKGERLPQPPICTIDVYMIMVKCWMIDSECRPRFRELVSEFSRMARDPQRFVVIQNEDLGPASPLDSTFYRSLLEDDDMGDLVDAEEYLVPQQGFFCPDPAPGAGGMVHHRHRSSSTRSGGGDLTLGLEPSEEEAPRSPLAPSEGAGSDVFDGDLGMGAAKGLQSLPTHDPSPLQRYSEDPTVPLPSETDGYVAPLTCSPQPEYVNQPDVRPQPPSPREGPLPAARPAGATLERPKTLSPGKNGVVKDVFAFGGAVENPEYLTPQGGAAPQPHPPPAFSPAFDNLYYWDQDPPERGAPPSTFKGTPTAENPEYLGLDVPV
Chain of MDR1 (P-gp) (P08183 whole entry): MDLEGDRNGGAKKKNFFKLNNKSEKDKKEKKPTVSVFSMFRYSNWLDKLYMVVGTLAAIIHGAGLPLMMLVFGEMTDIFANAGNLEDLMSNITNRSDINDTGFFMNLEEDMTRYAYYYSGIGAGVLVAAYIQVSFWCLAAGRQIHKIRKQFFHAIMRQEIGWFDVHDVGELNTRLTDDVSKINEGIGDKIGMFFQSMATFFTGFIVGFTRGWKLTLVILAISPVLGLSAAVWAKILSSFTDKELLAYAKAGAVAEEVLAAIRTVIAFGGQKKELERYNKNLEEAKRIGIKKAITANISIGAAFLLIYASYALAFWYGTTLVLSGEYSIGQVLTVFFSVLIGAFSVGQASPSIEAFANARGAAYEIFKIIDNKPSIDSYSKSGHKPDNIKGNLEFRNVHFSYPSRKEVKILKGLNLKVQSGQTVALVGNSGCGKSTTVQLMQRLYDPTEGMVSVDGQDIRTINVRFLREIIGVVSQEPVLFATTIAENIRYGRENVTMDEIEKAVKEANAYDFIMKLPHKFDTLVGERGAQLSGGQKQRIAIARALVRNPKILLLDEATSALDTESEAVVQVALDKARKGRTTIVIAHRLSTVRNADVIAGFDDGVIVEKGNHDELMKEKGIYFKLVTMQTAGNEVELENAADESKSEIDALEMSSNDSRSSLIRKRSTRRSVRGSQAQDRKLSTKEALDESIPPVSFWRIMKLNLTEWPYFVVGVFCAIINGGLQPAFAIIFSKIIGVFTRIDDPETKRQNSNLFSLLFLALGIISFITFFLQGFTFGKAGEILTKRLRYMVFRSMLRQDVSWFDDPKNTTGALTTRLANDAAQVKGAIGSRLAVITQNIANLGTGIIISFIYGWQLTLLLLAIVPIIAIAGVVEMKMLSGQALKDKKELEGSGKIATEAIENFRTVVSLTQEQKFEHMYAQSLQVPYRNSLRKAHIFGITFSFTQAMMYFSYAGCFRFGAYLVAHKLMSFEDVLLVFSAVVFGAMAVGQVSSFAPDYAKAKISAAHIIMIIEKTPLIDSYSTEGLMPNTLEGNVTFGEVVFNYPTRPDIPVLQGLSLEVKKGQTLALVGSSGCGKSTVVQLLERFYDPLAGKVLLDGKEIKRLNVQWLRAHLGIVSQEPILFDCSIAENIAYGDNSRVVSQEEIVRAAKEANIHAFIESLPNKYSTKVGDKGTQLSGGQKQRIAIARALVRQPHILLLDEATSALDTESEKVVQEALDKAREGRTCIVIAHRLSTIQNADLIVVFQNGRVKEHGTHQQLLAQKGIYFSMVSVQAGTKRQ
Chain of EGFR (P00533 25-1210): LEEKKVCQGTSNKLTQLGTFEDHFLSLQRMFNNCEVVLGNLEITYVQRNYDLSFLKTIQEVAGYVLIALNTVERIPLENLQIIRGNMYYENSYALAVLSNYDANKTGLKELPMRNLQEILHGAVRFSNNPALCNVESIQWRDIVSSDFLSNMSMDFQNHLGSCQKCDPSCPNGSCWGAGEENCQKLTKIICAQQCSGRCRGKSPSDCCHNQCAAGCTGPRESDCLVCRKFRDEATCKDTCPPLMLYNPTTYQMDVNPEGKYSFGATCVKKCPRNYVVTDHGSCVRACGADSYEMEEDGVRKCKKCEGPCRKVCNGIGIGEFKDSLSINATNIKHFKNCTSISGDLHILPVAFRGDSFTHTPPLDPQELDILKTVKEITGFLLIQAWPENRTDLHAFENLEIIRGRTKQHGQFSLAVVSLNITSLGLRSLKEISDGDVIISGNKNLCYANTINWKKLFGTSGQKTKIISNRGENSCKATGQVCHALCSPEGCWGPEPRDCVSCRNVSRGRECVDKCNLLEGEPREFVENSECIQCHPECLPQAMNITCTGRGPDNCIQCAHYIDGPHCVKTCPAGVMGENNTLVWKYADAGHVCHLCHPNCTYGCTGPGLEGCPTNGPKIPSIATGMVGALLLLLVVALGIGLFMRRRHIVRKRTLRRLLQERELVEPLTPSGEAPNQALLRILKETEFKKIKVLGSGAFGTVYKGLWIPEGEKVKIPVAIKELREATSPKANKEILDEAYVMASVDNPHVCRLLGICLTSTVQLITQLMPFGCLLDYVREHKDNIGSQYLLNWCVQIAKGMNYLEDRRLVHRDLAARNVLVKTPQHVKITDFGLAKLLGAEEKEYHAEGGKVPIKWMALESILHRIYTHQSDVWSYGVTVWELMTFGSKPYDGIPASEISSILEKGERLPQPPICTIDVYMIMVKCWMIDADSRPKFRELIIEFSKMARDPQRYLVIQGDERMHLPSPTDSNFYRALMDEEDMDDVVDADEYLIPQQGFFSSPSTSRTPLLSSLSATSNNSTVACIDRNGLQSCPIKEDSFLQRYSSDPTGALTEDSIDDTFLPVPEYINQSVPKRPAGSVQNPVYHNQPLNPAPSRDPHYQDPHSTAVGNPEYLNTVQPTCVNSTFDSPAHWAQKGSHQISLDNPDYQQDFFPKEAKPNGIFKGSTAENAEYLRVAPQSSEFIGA

| Structure (SMILES) | IC50 [1] | IC50 [2] | IC50 [3] | efflux ratio at 2 h, 1 μM [4] | IC50 [5] | efflux ratio at 2 h, 1 μM [6, 8] | IC50 [7] | efflux ratio at 2 h, 1 μM [6] | Assay 7 Pe Ratio ([4]; efflux ratio Papp(B-A)/Papp(A-B), MDR1 transfected MDCKII canine Mdr1 knockout) | Assay 9 Pe Ratio ([6]; efflux ratio Papp(B-A)/Papp(A-B), BCRP transfected MDCKII canine Mdr1 knockout) |
| --- | --- | --- | --- | --- | --- | --- | --- | --- | --- | --- |
| Cc1cc(Nc2ncnc3cnc(N4CC[C@@](C)(O)C4)nc23)ccc1Oc1ccc2c(c1)ncn2C [Example 154, (R)-3-methyl-1-(8-((3-methyl-4-((1-methyl-1H-benzo[d]imidazol-5-yl)oxy)phenyl)amino)pyrimido[5,4-d]pyrimidin-2-yl)pyrrolidin-3-ol] | ≥ 5000 nM | 1940 nM | 8 nM | 2.1 | 10.3 nM | 34 | 15.7 nM | – | – | – |
| Cc1cc(Nc2ncnc3cnc(N4CC5(C4)CC(C)(O)C5)nc23)ccc1Oc1ccc2c(c1)ncn2C [Example 156, 6-methyl-2-(8-((3-methyl-4-((1-methyl-1H-benzo[d]imidazol-5-yl)oxy)phenyl)amino)pyrimido[5,4-d]pyrimidin-2-yl)-2-azaspiro[3.3]heptan-6-ol] | ≥ 5000 nM | ≥ 10000 nM | 5.2 nM | 2 | 6.4 nM | – | 12.3 nM | 26 | – | – |
| Cc1cc(Nc2ncnc3cnc(N4C[C@H]5C[C@@H]4C[C@@H]5O)nc23)ccc1Oc1ccc2c(c1)ncn2C [Example 157, (1R,4R,5S)-2-(8-((3-methyl-4-((1-methyl-1H-benzo[d]imidazol-5-yl)oxy)phenyl)amino)pyrimido[5,4-d]pyrimidin-2-yl)-2-azabicyclo[2.2.1]heptan-5-ol] | ≥ 5000 nM | ≥ 10000 nM | 56.8 nM | – | 33.5 nM | – | 27.8 nM | – | 2.1 | 21.0 |
| Cc1cc(Nc2ncnc3cnc(N4CC5CC5(O)C4)nc23)ccc1Oc1ccc2c(c1)ncn2C (centres unmarked) [Example 158, 3-(8-((3-methyl-4-((1-methyl-1H-benzo[d]imidazol-5-yl)oxy)phenyl)amino)pyrimido[5,4-d]pyrimidin-2-yl)-3-azabicyclo[3.1.0]hexan-1-ol] | ≥ 5000 nM | ≥ 10000 nM | 58.2 nM | 1.9 | 29.4 nM | 33.8 | 9.8 nM | – | – | – |
| Cc1cc(Nc2ncnc3cnc(N4CCN(C5COC5)CC4)nc23)ccc1Oc1ccc2c(c1)ncn2C [Example 159, N-(3-methyl-4-((1-methyl-1H-benzo[d]imidazol-5-yl)oxy)phenyl)-6-(4-(oxetan-3-yl)piperazin-1-yl)pyrimido[5,4-d]pyrimidin-4-amine] | ≥ 5000 nM | 7370 nM | 40.7 nM | 2.1 | 28.7 nM | 9.6 | 17 nM | – | – | – |
| Cc1cc(Nc2ncnc3cnc(N4CCC(O)(C(F)F)CC4)nc23)ccc1Oc1ccc2c(c1)ncn2C [Example 168, 4-(difluoromethyl)-1-(8-((3-methyl-4-((1-methyl-1H-benzo[d]imidazol-5-yl)oxy)phenyl)amino)pyrimido[5,4-d]pyrimidin-2-yl)piperidin-4-ol] | ≥ 5000 nM | 3680 nM | 113 nM | 2 | 39.1 nM | 16.7 | 6.5 nM | – | – | – |
| Cc1cc(Nc2ncnc3cnc(N4C[C@H](O)C(F)(F)C4)nc23)ccc1Oc1ccc2c(c1)ncn2C [Example 170, (S)-4,4-difluoro-1-(8-((3-methyl-4-((1-methyl-1H-benzo[d]imidazol-5-yl)oxy)phenyl)amino)pyrimido[5,4-d]pyrimidin-2-yl)pyrrolidin-3-ol] | ≥ 5000 nM | ≥ 10000 nM | 28.6 nM | 2.1 | 20.1 nM | 36 | 3.4 nM | – | – | – |
| Cc1cc(Nc2ncnc3cnc(N(C)[C@H]4C[C@](C)(O)C4)nc23)ccc1Oc1ccc2c(c1)ncn2C [Example 171, (1r,3r)-1-methyl-3-(methyl(8-((3-methyl-4-((1-methyl-1H-benzo[d]imidazol-5-yl)oxy)phenyl)amino)pyrimido[5,4-d]pyrimidin-2-yl)amino)cyclobutan-1-ol] | ≥ 5000 nM | 472 nM | 5.9 nM | 1.9 | 13.5 nM | 8.6 | 7.1 nM | – | – | – |
